In publication PMC5698469, “Carrageenan catabolism is encoded by a complex regulon in marine heterotrophic bacteria” (Nature Communications, 2017):
Structures can show the parent of a compound that is named as a salt.

Columns and labels:
[1] = molecular target: 3,6-anhydro-D-galactonate cycloisomerase DauB (ZGAL_3156) (Zobellia galactanivorans); test: SEC; size-exclusion column analysis of ZGAL_3156 in solution (Supplementary Fig. 9)
[2] = molecular target: 3,6-anhydro-D-galactonate cycloisomerase DauB (ZGAL_3156) (Zobellia galactanivorans); test: crystal structure; hanging drop vapor diffusion; 0.2 M tri potassium citrate, 20% PEG 3350, 25 mg/mL ZGAL_3156; data at 100 K
[3] = molecular target: T1, ZGAL_3146 (CgsB1, S1_7) (Zobellia galactanivorans, UniProt G0L7B4); test: sulfatase activity on artificial substrate; type: biochemical
T1 construct: gene idsA3
T1 sequence (G0L7B4 19-544): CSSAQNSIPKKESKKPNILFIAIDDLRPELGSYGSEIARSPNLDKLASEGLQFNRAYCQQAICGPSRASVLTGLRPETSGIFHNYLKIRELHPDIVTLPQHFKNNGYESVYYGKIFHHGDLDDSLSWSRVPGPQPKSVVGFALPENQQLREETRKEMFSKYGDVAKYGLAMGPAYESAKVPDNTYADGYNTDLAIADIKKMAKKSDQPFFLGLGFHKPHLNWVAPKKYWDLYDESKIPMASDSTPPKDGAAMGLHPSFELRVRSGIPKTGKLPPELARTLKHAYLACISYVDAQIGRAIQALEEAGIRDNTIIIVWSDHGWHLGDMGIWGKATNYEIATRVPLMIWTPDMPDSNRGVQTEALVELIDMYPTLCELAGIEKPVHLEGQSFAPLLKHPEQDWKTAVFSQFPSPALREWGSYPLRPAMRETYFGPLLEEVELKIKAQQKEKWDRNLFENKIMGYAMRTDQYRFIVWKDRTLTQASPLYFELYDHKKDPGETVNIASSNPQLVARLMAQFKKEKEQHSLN

[4] = molecular target: T2, ZGAL_3145 (CgsA, S1_19) (Zobellia galactanivorans, UniProt G0L000); test: sulfatase activity on artificial substrate; type: biochemical
T2 construct: gene zobellia_3145
T2 sequence (G0L000 44-511): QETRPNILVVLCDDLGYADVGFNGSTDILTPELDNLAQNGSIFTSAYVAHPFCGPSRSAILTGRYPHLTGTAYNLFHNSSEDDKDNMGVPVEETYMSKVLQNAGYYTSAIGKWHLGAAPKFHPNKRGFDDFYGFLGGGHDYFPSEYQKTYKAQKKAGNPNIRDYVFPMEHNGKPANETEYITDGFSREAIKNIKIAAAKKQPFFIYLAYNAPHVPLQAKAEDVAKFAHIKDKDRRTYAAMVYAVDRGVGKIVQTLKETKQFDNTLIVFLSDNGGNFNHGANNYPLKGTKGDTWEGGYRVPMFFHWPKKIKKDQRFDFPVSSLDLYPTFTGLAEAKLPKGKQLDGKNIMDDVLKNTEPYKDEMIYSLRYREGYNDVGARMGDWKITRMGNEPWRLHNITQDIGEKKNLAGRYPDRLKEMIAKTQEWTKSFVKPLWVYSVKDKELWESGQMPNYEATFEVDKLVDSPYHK

[5] = molecular target: T3, ZGAL_3151 (CgsC, S1_17) (Zobellia galactanivorans, UniProt G0L7B6); test: sulfatase activity on artificial substrate; type: biochemical
T3 construct: gene zobellia_3151
T3 sequence (G0L7B6 40-596): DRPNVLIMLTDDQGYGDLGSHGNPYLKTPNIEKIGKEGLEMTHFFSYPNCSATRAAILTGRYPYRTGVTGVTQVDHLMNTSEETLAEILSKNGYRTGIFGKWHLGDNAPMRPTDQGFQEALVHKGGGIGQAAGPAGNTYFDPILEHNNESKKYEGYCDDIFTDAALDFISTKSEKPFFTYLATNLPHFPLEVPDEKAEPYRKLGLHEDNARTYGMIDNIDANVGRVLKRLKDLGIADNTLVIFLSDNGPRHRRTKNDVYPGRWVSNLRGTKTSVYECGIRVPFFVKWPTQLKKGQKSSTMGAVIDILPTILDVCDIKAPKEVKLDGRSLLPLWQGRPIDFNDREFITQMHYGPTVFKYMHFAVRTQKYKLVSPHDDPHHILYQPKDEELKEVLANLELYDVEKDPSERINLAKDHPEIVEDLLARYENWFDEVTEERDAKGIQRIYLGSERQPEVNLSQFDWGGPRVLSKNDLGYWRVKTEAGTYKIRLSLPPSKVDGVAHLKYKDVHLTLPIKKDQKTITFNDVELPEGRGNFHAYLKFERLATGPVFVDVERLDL

[6] = molecular target: T4, ZGAL_3152 (DagB, GH129-like) (Zobellia galactanivorans, UniProt G0L004); test: FACE and MALDI-TOF-MS; type: biochemical; conditions: 0.5% hexasaccharide fraction, 150 mM NaCl, 3.75 mM CaCl2, 100 mM HEPES pH 7.5, room temperature overnight
T4 construct: gene zobellia_3152; recombinant, E. coli BL21(DE3), pFO4, IMAC purified; homodimer, residues Pro35-Asp693 described in structure
T4 sequence (G0L004 entry or part of it): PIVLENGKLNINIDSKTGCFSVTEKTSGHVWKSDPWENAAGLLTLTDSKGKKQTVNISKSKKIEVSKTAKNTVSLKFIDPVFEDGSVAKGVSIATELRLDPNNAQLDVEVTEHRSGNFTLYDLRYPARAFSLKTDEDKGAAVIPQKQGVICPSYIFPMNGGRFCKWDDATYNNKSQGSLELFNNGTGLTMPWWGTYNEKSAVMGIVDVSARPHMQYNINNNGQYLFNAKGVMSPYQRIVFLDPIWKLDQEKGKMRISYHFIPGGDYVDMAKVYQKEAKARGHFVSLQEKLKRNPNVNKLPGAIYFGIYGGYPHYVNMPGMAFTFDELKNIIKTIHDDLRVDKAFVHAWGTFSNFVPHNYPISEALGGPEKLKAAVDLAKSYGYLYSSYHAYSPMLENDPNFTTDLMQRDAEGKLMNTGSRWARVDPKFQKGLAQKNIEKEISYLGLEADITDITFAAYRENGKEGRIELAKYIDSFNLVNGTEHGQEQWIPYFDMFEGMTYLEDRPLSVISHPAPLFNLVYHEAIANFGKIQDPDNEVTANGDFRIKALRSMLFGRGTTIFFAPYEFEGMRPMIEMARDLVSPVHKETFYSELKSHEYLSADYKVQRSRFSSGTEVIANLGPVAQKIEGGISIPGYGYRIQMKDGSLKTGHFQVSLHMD

[7] = molecular target: T5, ZGAL_3148 (DagA2, GH127-2) (Zobellia galactanivorans, UniProt G0L7B5); test: FACE and MALDI MS, E. coli soluble lysate; type: biochemical; conditions: 0.5% hexasaccharide fraction, 150 mM NaCl, 3.75 mM CaCl2, 100 mM HEPES pH 7.5, room temperature overnight
T5 construct: gene zobellia_3148; recombinant, soluble lysate of E. coli BL21(DE3), pFO4
T5 sequence (G0L7B5 1-656): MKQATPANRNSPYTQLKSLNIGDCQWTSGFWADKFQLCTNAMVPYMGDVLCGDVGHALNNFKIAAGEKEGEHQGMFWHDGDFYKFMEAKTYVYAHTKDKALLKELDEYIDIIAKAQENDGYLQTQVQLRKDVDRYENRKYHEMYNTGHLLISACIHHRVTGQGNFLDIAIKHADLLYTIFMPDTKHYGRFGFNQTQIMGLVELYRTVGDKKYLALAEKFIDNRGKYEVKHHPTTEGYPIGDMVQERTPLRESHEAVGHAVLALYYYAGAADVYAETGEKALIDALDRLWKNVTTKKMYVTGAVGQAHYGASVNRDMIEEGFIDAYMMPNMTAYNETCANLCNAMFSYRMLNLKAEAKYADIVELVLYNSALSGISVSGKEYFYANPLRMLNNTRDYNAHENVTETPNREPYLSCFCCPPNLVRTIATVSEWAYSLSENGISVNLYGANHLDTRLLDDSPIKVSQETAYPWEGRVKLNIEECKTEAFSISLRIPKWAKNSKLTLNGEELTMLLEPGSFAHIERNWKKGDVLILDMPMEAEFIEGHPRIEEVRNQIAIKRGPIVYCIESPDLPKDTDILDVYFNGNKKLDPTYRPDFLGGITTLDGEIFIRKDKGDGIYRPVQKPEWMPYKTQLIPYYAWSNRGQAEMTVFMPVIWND

[8] = molecular target: T6, ZGAL_3147 (DagA1, GH127-1) (Zobellia galactanivorans, UniProt G0L001); test: FACE and MALDI MS, E. coli soluble lysate; type: biochemical; conditions: 0.5% hexasaccharide fraction, 150 mM NaCl, 3.75 mM CaCl2, 100 mM HEPES pH 7.5, room temperature overnight; vector-only lysate as control
T6 construct: gene zobellia_3147; recombinant, soluble lysate of E. coli BL21(DE3), pFO4
T6 sequence (G0L001 20-681): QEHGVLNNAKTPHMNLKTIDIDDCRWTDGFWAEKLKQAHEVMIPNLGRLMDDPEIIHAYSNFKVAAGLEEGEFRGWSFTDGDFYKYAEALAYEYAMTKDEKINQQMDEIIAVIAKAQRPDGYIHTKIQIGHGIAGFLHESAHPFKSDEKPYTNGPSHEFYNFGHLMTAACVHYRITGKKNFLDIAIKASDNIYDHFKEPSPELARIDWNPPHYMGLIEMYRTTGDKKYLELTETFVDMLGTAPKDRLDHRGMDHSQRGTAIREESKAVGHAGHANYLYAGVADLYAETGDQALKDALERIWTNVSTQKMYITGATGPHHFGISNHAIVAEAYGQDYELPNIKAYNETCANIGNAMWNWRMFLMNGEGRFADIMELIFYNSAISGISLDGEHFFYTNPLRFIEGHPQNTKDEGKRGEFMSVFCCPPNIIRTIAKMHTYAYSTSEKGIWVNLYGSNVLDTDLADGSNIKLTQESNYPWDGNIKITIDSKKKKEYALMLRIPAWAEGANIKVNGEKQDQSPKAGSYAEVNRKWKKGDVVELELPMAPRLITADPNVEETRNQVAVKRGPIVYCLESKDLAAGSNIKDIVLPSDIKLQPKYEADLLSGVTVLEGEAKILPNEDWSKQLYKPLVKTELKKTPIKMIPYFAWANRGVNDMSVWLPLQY

[9] = molecular target: α-1,3-(3,6-anhydro)-D-galactosidase DagB (ZGAL_3152, GH129-like) (Zobellia galactanivorans); test: crystal structure; hanging drop vapor diffusion; 0.14 M Na/K-tartrate, 12% PEG 3350, 9 mg/mL ZGAL_3152; data at 100 K

3,6-anhydro-D-galactonate cycloisomerase DauB (ZGAL_3156) (enzyme)
stoichiometry N [1]: 8
stoichiometry N [2]: 8

Cc1cc(=O)oc2cc(OS(=O)(=O)O)ccc12 [4-methylumbelliferyl sulfate]
sulfatase activity on artificial substrate [3]: shown to be active sulfatases using the artificial substrate 4-methylumbelliferyl sulfate
sulfatase activity on artificial substrate [4]: shown to be active sulfatases using the artificial substrate 4-methylumbelliferyl sulfate
sulfatase activity on artificial substrate [5]: shown to be active sulfatases using the artificial substrate 4-methylumbelliferyl sulfate

O=C[C@H](O)[C@H]1OC[C@@H](O)[C@@H]1O [D-AnG]
FACE and MALDI-TOF-MS [6]: indicated the release of the terminal neutral monosaccharide D-AnG and of a pentasaccharide

O=S(=O)(O)O[C@@H]1[C@H](O[C@H]2O[C@@H]3CO[C@H]([C@H]2O)[C@H]3O[C@@H]2O[C@H](CO)[C@H](O)[C@H](O[C@H]3O[C@@H]4CO[C@@H]([C@H]4O)[C@H]3O)[C@H]2O)[C@@H](O)[C@H](O[C@@H]2[C@@H]3OC[C@H]2O[C@H](O[C@H]2[C@@H](OS(=O)(=O)O)[C@@H](CO)OC(O)[C@@H]2O)[C@@H]3O)O[C@@H]1CO (stereo partly drawn) [DP6 beta-kappa-kappa oligosaccharide]
FACE and MALDI MS, E. coli soluble lysate [7]: All the GHs showed activity on the furcellaran hexasaccharide, as demonstrated using FACE
FACE and MALDI MS, E. coli soluble lysate [8]: All the GHs showed activity on the furcellaran hexasaccharide, as demonstrated using FACE

α-1,3-(3,6-anhydro)-D-galactosidase DagB (ZGAL_3152, GH129-like) (enzyme)
stoichiometry N [9]: 2
